The text below walks through data of patent US9018203B2, “Pharmaceutical composition of salicylanilide-derived small molecules and preparation and application thereof” (National Defense Medical Center, priority 2012, dated 2015).

The subject of data set [1] is RAW 264.7 cells. The data set is described as follows: TRAP staining and activity assay of RANKL-induced osteoclastogenesis. As to conditions: 10 μM compound; for Osteoclastogenesis: TRAP+ MNCS at 10 μM (%): 100 ng/mL RANKL, 5 days, relative to RANKL without drug; for Inhibition of osteoclast differentiation, TRAP staining (FIG. 1 C, D, E) / Inhibitory activity on osteoclastogenesis (in words): RANKL. The data set is classed as cell-based, murine. The method, then:
The murine RAW 264.7 cell was an osteoclast precursor cell. RAW 264.7 cells were cultured in DMEM (Gibco BRL), 10% FBS, Penicillin (100 U/L), Streptomycin (100 U/L), 5% CO2, 37° C. To induce the murine RAW 264.7 cells differentiation, the cells were cultured in 96-well culture dish 10^4 cell per dish with α-MEM, 10% FBS, 2 mM L-glutamate, Penicillin (100 U/L), Streptomycin (100 U/L), with or without 100 ng/mL RANKL for 5 days, and added or not added tested drug, replaced the fresh medium at 3 day. The cells were TRAP^+ stained and analyzed the activity, then washed the cells by PBS and fixed by 3.7% formaldehyde for 30 minutes, then washed by PBS. The cells were reacted in Leukocyte Acid Phosphatase Assay kit (Sigma) at 37° C. for 1 hr, and washed by distilled water for three times and counted the multinucleated cells numbers by microscopy.
After treatment with RANKL and 10 μM compounds in RAW 264.7, the osteoclasts were counted percentage of the TRAP^+ cells (TRAP^+ MNCS %, the denominator was the number of cells which was treated with RANKL but without drug, and the numerator was the number of cells which was treated with RANKL and drug).

The test system of data set [2] is RAW 264.7 cells. Put plainly: MTT cell viability assay in RAW 264.7 cells. The data set is classed as cell-based, murine. The note with it: 24 hr; for Cell viability: Survival rate at 10 μM (%): 10 μM compound; for CC50: read-out: Cell viability: CC50 (cytotoxic concentration that produces 50% cell survival). The method, then:
(§1) Cell viability was measured by MTT assay in RAW 264.7 cells upon treatment with 10 μM compounds for 24 hr. CC50 (the cytotoxic concentration that produces 50% cell survival) were identified in this example.

A short description of data set [3]: MTT cell viability assay in RAW 264.7 cells. It counts as cell-based, murine. The note with it: mouse; for viability at 24 hr, 10 µM: 10 μM compound, read-out: Cell viability: Survival rate at 10 μM (%); for CC50 at 24 hr: read-out: Cell viability: CC50 (cytotoxic concentration that produces 50% cell survival). The method, then: as §1
The test system of data set [4] is RAW 264.7 cells. The data set is described as follows: Pit formation assay (bone resorption). It counts as cell-based, murine. The note with it: RANKL, 10 μM compound. How it is done:
In pit formation assay, RAW 264.7 cells were cultured in DMEM (Gibco BRL) 10% FBS, Penicillin (100 U/L), streptomycin (100 U/L), 5% CO2 at 37° C. To induce the murine RAW 264.7 cell differentiation, the cells were cultured in 96-well culture dish 10^4 cell per dish with α-MEM, 10% FBS, 2 mM L-glutamate, Penicillin (100 U/L), Streptomycin (100 U/L), with or without 100 ng/mL RANKL for 5 days in the present or absent tested drug, replaced the fresh medium at 3 day. The 24-well plate were washed by PBS and added in 0.5 mL/well chloride solution, stood at room-temperature for 10 minutes for destroying the cell, then stained with 0.1% Toluidine Blue 0.5 mL/well, and washed by distilled water for three times and photographed under microscopy.

`COc1ccc(C(=O)Nc2ccc(Cl)cc2F)c(OC)c1` [compound 2b, N-(4-chloro-2-fluorophenyl)-2,4-dimethoxybenzamide] returned a melting point of 155 to 156 °C. For the same compound, in data set [1], the “Osteoclastogenesis: TRAP+ MNCS at 10 μM (%)” value (“Osteoclastogenesis … (%)” for short) stood at 60.2 ± 3.6%. In addition, in data set [2], the “Cell viability: Survival rate at 10 μM (%)” value (shortened to “Cell viability … (%)”) is given as 52.9 ± 2.8% and the CC50 turned out to be 13.6 ± 1.2 µM.
Compound `COc1ccc(C(=O)Nc2ccc(F)cc2F)c(O)c1` [compound 4a, N-(2,4-difluorophenyl)-2-hydroxy-4-methoxybenzamide] showed a melting point of 180 to 181 °C. Further, in data set [1], the “Osteoclastogenesis … (%)” value was determined as 41.3±8.6%. Moreover, in data set [3], the viability at 24 hr, 10 µM amounted to 105 ± 4.7% and the CC50 at 24 hr was greater than 40 µM.
Take `O=c1oc2ccccc2c(=O)n1-c1ccc(Cl)cc1F` [compound 1d, 3-(4-chloro-2-fluorophenyl)-2H-benzo[e][1,3]oxazine-2,4(3H)-dione]: in data set [1], the “Osteoclastogenesis … (%)” value turned out to be 3.4±2.1% and the “Inhibition of osteoclast differentiation, TRAP staining (FIG. 1 C, D, E)” value (from here on “Inhibition of osteoclast differentiation”) was “significant inhibition of differentiation”. Moreover, the CC50 at 24 hr in data set [3] was greater than 40 µM. Further, the “Cell viability … (%)” value in data set [2] worked out at 97.9 ± 2.0%. In data set [4], the “Bone resorption, erosion of bone slices (FIG. 2 C, D)” value is listed as “the resorption hole was reduced”.
Regarding `O=C(O)c1ccccc1O` [Salicylic acid, reference compound], in data set [1], the “Inhibitory activity on osteoclastogenesis (in words)” value is given as “did not perform significant inhibitory activity”. Further, the CC50 at 24 hr in data set [3] is greater than 40 µM.
`O=C(Nc1ccc(Cl)cc1F)c1ccccc1OCc1ccc(F)cc1F` [compound 1c, N-(4-chloro-2-fluorophenyl)-2-((2,4-difluorobenzyl)oxy)benzamide]: the melting point was in the range of 121 to 122 °C. Also, the “Osteoclastogenesis … (%)” value in data set [1] is 74.6 ± 6.2%. Moreover, the CC50 at 24 hr in data set [3] was greater than 40 µM. Also, the “Cell viability … (%)” value in data set [2] was determined as 107.2 ± 4.5%.
The matching figures for `O=C(Nc1ccc(F)cc1F)c1ccccc1OCc1ccc(F)cc1F` [compound 3c, 2-((2,4-difluorobenzyl)oxy)-N-(2,4-difluorophenyl)benzamide]: 135 to 136 °C, 97.6 ± 6.0%, greater than 40 µM and 101.1 ± 3.2%.
The matching figures for `COc1ccc(C(=O)Nc2ccc(Cl)cc2F)c(OCc2ccc(F)cc2F)c1` [compound 2c, N-(4-chloro-2-fluorophenyl)-2-((2,4-difluorobenzyl)oxy)-4-methoxybenzamide]: 134 to 135 °C, 68.7 ± 4.6%, greater than 40 µM and 107.3 ± 4.4%.
The matching figures for `COc1ccc(C(=O)Nc2ccc(F)cc2F)c(OCc2ccc(F)cc2F)c1` [compound 4c, 2-((2,4-difluorobenzyl)oxy)-N-(2,4-difluorophenyl)-4-methoxybenzamide]: 131 to 132 °C, 66.2 ± 8.1%, greater than 40 µM and 106.0 ± 8.8%.
In the case of `COc1ccc2c(=O)n(-c3ccc(F)cc3F)c(=O)oc2c1` [compound 4d, 3-(2,4-difluorophenyl)-7-methoxy-2H-benzo[e][1,3]oxazine-2,4(3H)-dione], the melting point lay within 138 to 139 °C. Moreover, the “Osteoclastogenesis … (%)” value in data set [1] is 87.9 ± 9.1%. In data set [3], the viability at 24 hr, 10 µM came to 102 ± 9.1% and the CC50 at 24 hr was greater than 40 µM.
Regarding `COc1ccc(C(=O)O)c(O)c1` [2-hydroxy-4-methoxy-benzoic acid, reference compound], in data set [1], the “Osteoclastogenesis … (%)” value amounted to 79.6 ± 8.3% and the “Inhibitory activity on osteoclastogenesis (in words)” value is on record as “did not perform significant inhibitory activity”. The CC50 at 24 hr in data set [3] was greater than 40 µM. Besides, the “Cell viability … (%)” value in data set [2] is on record as 99.4 ± 7.6%.
Take `O=c1oc2ccccc2c(=O)n1-c1ccc(F)cc1F` [compound 3d, 3-(2,4-difluorophenyl)-2H-benzo[e][1,3]oxazine-2,4(3H)-dione]: the melting point lay within 182 to 183 °C. Also, the “Osteoclastogenesis … (%)” value in data set [1] is reported as 69.8 ± 7.7%. For the same compound, in data set [3], the viability at 24 hr, 10 µM worked out at 105 ± 6.3% and the CC50 at 24 hr was greater than 40 µM.
Compound `COc1ccc2c(=O)n(-c3ccc(Cl)cc3F)c(=O)oc2c1` [compound 2d, 3-(4-chloro-2-fluorophenyl)-7-methoxy-2H-benzo[e][1,3]oxazine-2,4(3H)-dione] registered a melting point of 203 to 204 °C. Further, in data set [1], the “Osteoclastogenesis … (%)” value is on record as 36.0±1.8% and the “Inhibition of osteoclast differentiation” value was “significant inhibition of differentiation”. Besides, the CC50 at 24 hr in data set [3] is greater than 40 µM. Besides, in data set [2], the “Cell viability … (%)” value is reported as 100.5 ± 2.4%.
Consider `O=C(Nc1ccc(Cl)cc1F)c1ccccc1O` [compound 1a, N-(4-chloro-2-fluorophenyl)-2-hydroxybenzamide], for which the melting point was in the range of 184 to 185 °C. In data set [1], the “Osteoclastogenesis … (%)” value was 49.4±5.4%. Further, in data set [3], the viability at 24 hr, 10 µM was determined as 93 ± 3.1% and the CC50 at 24 hr stood at 21.3 ± 3.4 µM.
The matching figures for `O=C(Nc1ccc(F)cc1F)c1ccccc1O` [compound 3a, N-(2,4-difluorophenyl)-2-hydroxybenzamide]: 186 to 187 °C, 85.9 ± 6.2%, 104 ± 3.6% and greater than 40 µM.
Compound `COc1ccc(C(=O)Nc2ccc(F)cc2F)c(OC)c1` [compound 4b, N-(2,4-difluorophenyl)-2,4-dimethoxybenzamide] registered a melting point of 138 to 139 °C. Besides, the “Osteoclastogenesis … (%)” value in data set [1] was found to be 93.0 ± 7.7%. Further, the CC50 at 24 hr in data set [3] is greater than 40 µM. The “Cell viability … (%)” value in data set [2] is 102.5 ± 9.3%.
The matching figures for `COc1ccccc1C(=O)Nc1ccc(F)cc1F` [compound 3b, N-(2,4-difluorophenyl)-2-methoxybenzamide]: 86 to 87 °C, 89.1 ± 5.1%, greater than 40 µM and 108.5 ± 4.0%.
The matching figures for `COc1ccccc1C(=O)Nc1ccc(Cl)cc1F` [compound 1b, N-(4-chloro-2-fluorophenyl)-2-methoxybenzamide]: 111 to 112 °C, 86.0 ± 9.9%, greater than 40 µM and 101.8 ± 4.5%.
`COc1ccc(C(=O)Nc2ccc(Cl)cc2F)c(O)c1` [compound 2a, N-(4-chloro-2-fluorophenyl)-2-hydroxy-4-methoxybenzamide] came in with a melting point of 186 to 187 °C. Further, in data set [1], the “Osteoclastogenesis … (%)” value came out at 23.8±3.4% and the “Inhibition of osteoclast differentiation” value is “significant inhibition of differentiation”. In addition, in data set [2], the “Cell viability … (%)” value came out at 103.0 ± 2.8% and the CC50 came out at 32.3 ± 4.9 µM. Also, the “Bone resorption, erosion of bone slices (FIG. 2 C, D)” value in data set [4] was “the resorption hole was reduced”.
